In PubChem BioAssay (NCI) one finds TGI and GI50 data, which are given here for 25 compounds.

Test systems include BT-549 breast; MDA-N; DMS 114 small cell lung; LXFL 529 NSCLC; M19-MEL melanoma; SNB-78 CNS; HOP-18 NSCLC.
Common to all, as to test: NCI anticancer screen, dose series, 48 h

Values joined by “and” are separate entries in the source; they are usually repeats but may differ in a detail not shown here. Equal entries are not always repeated.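 Five compound concentrations were applied to cells in 96-well plates for 48 hours; endpoints were derived by simple linear interpolation of the resulting dose-response curve. Abbreviation: GI50, concentration required for 50% inhibition of growth. TGI denotes the concentration required for complete inhibition of growth.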 A value given as a limit tells only on which side of the number the result lay.

Take `Fc1cccc(C2ON=C(c3ccccc3)N2C23CC4CC(CC(C4)C2)C3)c1` (configuration not stated): the TGI in the experiment with BT-549 breast and in the experiment with MDA-N was > 10 µM throughout.

Take `CCOc1ccccc1NC(=O)C1=C(C)NC(C)=C(C(=O)Nc2ccccc2OCC)C1c1ccc2c(c1)OCO2`: the TGI was > 100 µM in the experiment on DMS 114 small cell lung, > 100 µM in the experiment on LXFL 529 NSCLC, > 100 µM with M19-MEL melanoma and 95.6 µM with SNB-78 CNS.

Take `COc1ccc(/C(C#N)=C2/O/C(=N/N)C(c3ccc(OC)c(OC)c3)C2=O)cc1OC` (configuration not stated): the TGI in the experiment on LXFL 529 NSCLC, in the experiment on M19-MEL melanoma and in the experiment on SNB-78 CNS was > 100 µM in each case.

As to `NC(=O)C1C(=O)Oc2cccnc21` (configuration not stated), the TGI in the experiment on DMS 114 small cell lung, in the experiment on HOP-18 NSCLC and in the experiment on M19-MEL melanoma was > 100 µM each time.

Consider `O=C([CH-]C(=O)c1ccccc1)c1ccccc1.[CH2-]C.[CH2-]C.[Tl+3]`, for which, in the experiment on BT-549 breast, the GI50 is 26.9 µM and the TGI was > 100 µM. Besides, in the experiment on HOP-18 NSCLC, the GI50 is 28.5 µM and the TGI was > 100 µM.

Take `CC(C)OC(=O)c1cc(NC(=S)OC(C)C)ccc1Cl`: the TGI in the experiment on BT-549 breast was 33.5 µM; in the experiment on MDA-N, 50 µM.

Take `c1ccc2[nH]c(-c3cscn3)nc2c1`: the TGI with BT-549 breast and in the experiment on MDA-N was > 100 µM throughout.

`CCCCCCCC(=O)OC[n+]1cccc(-c2c(COC(=O)NC(C)C)c(COC(=O)NC(C)C)c3n2CCC3)c1`: the TGI in the experiment on BT-549 breast and in the experiment with MDA-N was > 100 µM in each case.

In the experiment on BT-549 breast, `COc1ccc2cc1Oc1ccc(cc1)CC1c3c(cc(OC)c4c3Oc3cc5c(cc3O4)CCNC5C2)CCN1C` (configuration not stated) registered a TGI of 8.01 µM. For the same compound, in the experiment with MDA-N, the GI50 is 1.95 µM; the TGI is 3.43 µM and 3.49 µM.

For the compound `CC(=O)O[C@H]1C(=O)[C@@]2(C)C([C@H](OC(=O)c3ccccc3)[C@]3(O)C[C@H](OC(=O)[C@H](O)[C@@H](NC(=O)c4ccc(Cl)cc4)c4ccccc4)C(C)=C1C3(C)C)C1(OC(C)=O)CO[C@@H]1C[C@@H]2O` (some centres not stated), the TGI in the experiment on BT-549 breast was determined as 0.212 µM; with LXFL 529 NSCLC it was 57.2 µM; in the experiment on M19-MEL melanoma it was 14.1 µM; with MDA-N, 0.0195 µM.

Turning to `COc1ccc(S(=O)(=O)NNS(C)(=O)=O)cc1OC`, the TGI with LXFL 529 NSCLC and with M19-MEL melanoma was > 100 µM throughout.

On to `COc1cc(COC(=O)N(C)[C@@H](Cc2ccccc2)C(=O)O)c([N+](=O)[O-])cc1OC`, for which the TGI with BT-549 breast and in the experiment on MDA-N was > 100 µM throughout.

Turning to `C=C1CCC2C(C)(CO)C(O)CCC2(C)C1C/C=C1\C(=O)OCC1O` (configuration not stated), the TGI stood at 20.3 µM in the experiment with BT-549 breast and 55.1 µM in the experiment on MDA-N.

`Fc1nc(Sc2ncnc3nc[nH]c23)nc(-c2c3ccccc3c3sc4ccccc4n23)n1`: the TGI in the experiment with BT-549 breast and in the experiment on MDA-N was > 100 µM in each case.

With `NCC[PH+](c1ccccc1)c1ccccc1.NCC[PH+](c1ccccc1)c1ccccc1.[Cl-].[Pt+4]`, in the experiment with BT-549 breast, the GI50 was > 100 µM and the TGI is > 100 µM. In the experiment with MDA-N, the GI50 is > 100 µM and the TGI is > 100 µM.

As to `CC1(O)CC2C(CC1SCc1ccccc1)C2(C)C` (configuration not stated), the TGI in the experiment with DMS 114 small cell lung was 33.1 µM; with LXFL 529 NSCLC, > 100 µM and 28.1 µM; with M19-MEL melanoma, 57.8 µM and > 100 µM; with SNB-78 CNS, > 100 µM and 34.9 µM. For the same compound, the GI50 in the experiment on LXFL 529 NSCLC was 38.6 µM and 14.8 µM; in the experiment on M19-MEL melanoma it was 26.2 µM and > 100 µM; with SNB-78 CNS, 76.7 µM and 17.9 µM.

For `CSc1ccc2c(c1)N(CCCN(C)C)c1ccccc1S2`, the figures for the TGI in the experiment on BT-549 breast and in the experiment on MDA-N were 29.2 µM and 23.9 µM, respectively.

In the case of `COc1cc2c(c(OC)c1OC)-c1ccc(SC)c(=O)cc1C(CC(=O)Oc1ccccc1F)C2` (configuration not stated), the TGI is 0.0438 µM with DMS 114 small cell lung, > 7.5 µM with LXFL 529 NSCLC, > 7.5 µM in the experiment on M19-MEL melanoma and > 7.5 µM in the experiment on SNB-78 CNS.

In the case of `Cc1cn([C@H]2CN(O)C[C@@H](CO)O2)c(=O)[nH]c1=O`, the TGI with BT-549 breast and with MDA-N was > 100 µM throughout.

`Cc1cc(=O)[nH]c2c1C(=O)c1c(C)cc(=O)n(C)c1C2=O`: the TGI in the experiment on BT-549 breast stood at 0.0519 µM; in the experiment on MDA-N, 0.0331 µM.

In the experiment on MDA-N, `N#CC(C#N)=C/C=C/c1ccccc1[N+](=O)[O-]` came in with a TGI of 6.29 µM.

For the compound `COC(=O)C1C(=O)NC2(C)CC1c1ccccc1O2` (configuration not stated), the TGI with DMS 114 small cell lung, with LXFL 529 NSCLC, with M19-MEL melanoma and with SNB-78 CNS was > 100 µM in each case.

Take `O=C(CC/C(CC(=O)c1ccc(Cl)cc1)=N\O)Nc1cccc(Cl)c1`: the TGI with DMS 114 small cell lung, in the experiment on LXFL 529 NSCLC, in the experiment on M19-MEL melanoma and in the experiment on SNB-78 CNS was > 100 µM throughout.

Turning to `Cc1ccc(-n2cc(/C(N)=N/O)c3ccccc3c2=O)cc1`, the TGI in the experiment with DMS 114 small cell lung, in the experiment on LXFL 529 NSCLC and with M19-MEL melanoma was > 100 µM throughout.

For `CC(=O)OCCc1cc2ccccc2oc1=O`, the TGI in the experiment on BT-549 breast and in the experiment on MDA-N was > 100 µM each time.
